In patent EP2719696A1, “NOVEL KINASE INHIBITORS” (Asinex Limited, priority 2011, dated 2012):
Read-outs that look alike come from different tables or passages of the source.

Columns and labels:
[1] = In vivo PK study, determination of brain-to-plasma ratio; conditions: mouse, SHK mice, PO dosing 5mg/kg, 20% water solution of HPβCD, read-out: brain-to-plasma concentration ratio
Experimental: Male SHK mice (22-25 g) were dosed with 5 mg/kg of related compounds as a single injection via oral gavage (formulated in 20% water solution of HPβCD). Blood samples and whole brains were collected from three mice at each of eight collection time points of 0.05, 0.25, 0.5, 1, 2, 4, 8 and 24 h post dose. Plasma was collected from blood samples, and whole brain samples were homogenized in three volumes of water. Both tissues were analyzed for concentrations of related compounds by liquid chromatography-mass spectrometry (LC-MS/MS). Table 9. brain-to-plasma concentration ratios in SHK mice after PO dosing 5mg/kg for several selected examples

[2] = system: A2780; experiment: MTT proliferation / cytotoxicity assay; assay type: cell-based, human
Experimental: (§1) Cell culture. The human cancer cell lines A172, A375, A2780 and U251 were purchased from the American Type Culture Collection. All cells were routinely maintained in DMEM containing 10% fetal bovine serum (Omega Scientific), at 37°C in 5% C02.
(§2) Proliferation assay Inhibition of cell A172, A375, A2780 and U251 cell proliferation was assessed by a MTT assay (MTT = Thiazolyl Blue Tetrazolium Bromide) . Cells were inoculated into 96-well microtiter plates containing 0.5% fetal calf serum and incubated at 37°C, 5% CO2, 95% air, and 100% relative humidity for 24 h prior to addition of testing compounds. Following compounds addition, the plates were incubated for an additional 72 h before processing to measure the cell population. Each compound was tested at eight different concentrations in triplicate, as was a control sample. Growth inhibition of 50% (IC50) is calculated by analysis of the data in Prizm3.4 software.
(§3) Table 8 lists IC50 values for inhibition of growth of several cancer cell lines, including the glioblastoma cell lines A172 and U251, measured in a MTT cytotoxicity assay. Table 8. Data of cytotoxicity assay (MTT) for several cancer cell lines, IC50 [µM]

[3] = system: U251; experiment: MTT proliferation / cytotoxicity assay; assay type: cell-based, human; conditions: glioblastoma cell line
Experimental: as §1, §2, §3

[4] = system: A172; experiment: MTT proliferation / cytotoxicity assay; assay type: cell-based, human; conditions: glioblastoma cell line
Experimental: as §1, §2, §3

[5] = system: A375; experiment: MTT proliferation / cytotoxicity assay; assay type: cell-based, human
Experimental: as §1, §2, §3

[6] = biological target: cKIT (Homo sapiens, UniProt P10721); experiment: Kinase inhibition assay (ELISA); assay type: biochemical; conditions: 60 µM ATP
Sequence of cKIT (P10721 26-976): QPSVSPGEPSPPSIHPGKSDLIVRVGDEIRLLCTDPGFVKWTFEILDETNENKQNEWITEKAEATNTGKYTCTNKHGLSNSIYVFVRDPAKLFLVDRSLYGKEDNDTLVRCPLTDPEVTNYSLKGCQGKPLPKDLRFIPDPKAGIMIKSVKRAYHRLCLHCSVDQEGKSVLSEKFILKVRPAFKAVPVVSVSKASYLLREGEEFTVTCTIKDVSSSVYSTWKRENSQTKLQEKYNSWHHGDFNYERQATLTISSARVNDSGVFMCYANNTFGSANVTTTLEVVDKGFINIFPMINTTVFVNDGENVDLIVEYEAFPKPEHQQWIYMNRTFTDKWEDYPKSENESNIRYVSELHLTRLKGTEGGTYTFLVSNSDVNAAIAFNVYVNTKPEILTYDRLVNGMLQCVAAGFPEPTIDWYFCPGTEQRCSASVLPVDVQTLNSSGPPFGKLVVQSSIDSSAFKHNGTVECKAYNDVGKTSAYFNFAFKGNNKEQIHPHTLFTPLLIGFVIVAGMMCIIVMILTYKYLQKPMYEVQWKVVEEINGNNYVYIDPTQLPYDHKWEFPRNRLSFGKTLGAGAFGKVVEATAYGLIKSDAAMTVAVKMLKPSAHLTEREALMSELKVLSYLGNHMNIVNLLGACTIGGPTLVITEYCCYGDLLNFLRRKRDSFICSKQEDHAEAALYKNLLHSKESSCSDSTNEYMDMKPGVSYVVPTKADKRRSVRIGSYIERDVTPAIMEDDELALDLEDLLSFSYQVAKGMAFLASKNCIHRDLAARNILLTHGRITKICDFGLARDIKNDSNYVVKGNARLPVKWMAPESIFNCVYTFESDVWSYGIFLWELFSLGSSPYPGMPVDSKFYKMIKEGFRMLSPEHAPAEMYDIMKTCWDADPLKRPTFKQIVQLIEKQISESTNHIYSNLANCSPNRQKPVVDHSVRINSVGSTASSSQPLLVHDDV
Experimental: (§4) To determine the interaction of our compounds with tyrosine kinases: PDGFR-α, cKIT, PDGFR-β, VEGFR-2 we used enzyme-linked immunosorbent assay (ELISA).
(§5) Determination plates preparation: The plates are processed by neutravidine for 2 h at 30°C. After washing thrice with TBS/0.1% Tween-20 and blocking with 1% BSA/TBS for 1 h at room temperature (RT) 96-well microtiter plates were washed thrice with TBS/0.1% Tween-20 again.
(§6) Reaction: After addition test compounds (in DMSO, DMSO final concentration - 5%) to reaction buffer (20 mM HEPES, pH 7.5, 15 mM MgCl2, 3 mM MnCl2, 2 mM DTT, 0.2 mM Na3VO4, 0.005% Triton X-100; PDGFR-α,: 0.05 µg/ml, 0.5 µg/ml Poly(G,T)-biotin; PDGFR-β: 0.05 µg/ml, 1 µg/ml Poly(G,T)-biotin; c-KIT: 0.03 µg/ml, 0.15 µg/ml Poly(G,T)-biotin; VEGFR-2: 0.07 µg/ml, 0.05 µg/ml Poly(G,T)-biotin) and preincubation of reaction for 10 min at RT and intensive agitation, ATP solution (PDGFR-α, - 1 µM, PDGFR-β - 0.5 µM, c-KIT - 60 µM, VEGFR-2: - 1.5 µM ATP in reaction buffer per well) was added to initiate reaction. Following incubation of mixture for 1 h at 30°C and intensive agitation the reaction was stopped by stop solution (20 mM HEPES, pH 7.5, 50 mM EDTA).
(§7) Kinase activity determination: The reaction mixture was transferred to determination plate. After mix incubation for 1 h at RT and intensive agitation the plates were washed thrice with TBS/0.1% Tween-20. Following mouse monoclonal 0.05 µg/ml Anti-p-Tyr (PY20) HRP antibodies (Santa Cruz Biotechnology) in PBS/BSA were added for 1 h at RT and intensive agitation. After washing, antibody binding was detected by tetramethylbenzidine (TMB) color development (Sigma). Measurement of A450 nm was carried out after addition of H2SO4

[7] = biological target: VEGFR-2 (Homo sapiens, UniProt P35968); experiment: Kinase inhibition assay (ELISA); assay type: biochemical; conditions: 1.5 µM ATP
Sequence of VEGFR-2 (P35968 20-1356, species assumed): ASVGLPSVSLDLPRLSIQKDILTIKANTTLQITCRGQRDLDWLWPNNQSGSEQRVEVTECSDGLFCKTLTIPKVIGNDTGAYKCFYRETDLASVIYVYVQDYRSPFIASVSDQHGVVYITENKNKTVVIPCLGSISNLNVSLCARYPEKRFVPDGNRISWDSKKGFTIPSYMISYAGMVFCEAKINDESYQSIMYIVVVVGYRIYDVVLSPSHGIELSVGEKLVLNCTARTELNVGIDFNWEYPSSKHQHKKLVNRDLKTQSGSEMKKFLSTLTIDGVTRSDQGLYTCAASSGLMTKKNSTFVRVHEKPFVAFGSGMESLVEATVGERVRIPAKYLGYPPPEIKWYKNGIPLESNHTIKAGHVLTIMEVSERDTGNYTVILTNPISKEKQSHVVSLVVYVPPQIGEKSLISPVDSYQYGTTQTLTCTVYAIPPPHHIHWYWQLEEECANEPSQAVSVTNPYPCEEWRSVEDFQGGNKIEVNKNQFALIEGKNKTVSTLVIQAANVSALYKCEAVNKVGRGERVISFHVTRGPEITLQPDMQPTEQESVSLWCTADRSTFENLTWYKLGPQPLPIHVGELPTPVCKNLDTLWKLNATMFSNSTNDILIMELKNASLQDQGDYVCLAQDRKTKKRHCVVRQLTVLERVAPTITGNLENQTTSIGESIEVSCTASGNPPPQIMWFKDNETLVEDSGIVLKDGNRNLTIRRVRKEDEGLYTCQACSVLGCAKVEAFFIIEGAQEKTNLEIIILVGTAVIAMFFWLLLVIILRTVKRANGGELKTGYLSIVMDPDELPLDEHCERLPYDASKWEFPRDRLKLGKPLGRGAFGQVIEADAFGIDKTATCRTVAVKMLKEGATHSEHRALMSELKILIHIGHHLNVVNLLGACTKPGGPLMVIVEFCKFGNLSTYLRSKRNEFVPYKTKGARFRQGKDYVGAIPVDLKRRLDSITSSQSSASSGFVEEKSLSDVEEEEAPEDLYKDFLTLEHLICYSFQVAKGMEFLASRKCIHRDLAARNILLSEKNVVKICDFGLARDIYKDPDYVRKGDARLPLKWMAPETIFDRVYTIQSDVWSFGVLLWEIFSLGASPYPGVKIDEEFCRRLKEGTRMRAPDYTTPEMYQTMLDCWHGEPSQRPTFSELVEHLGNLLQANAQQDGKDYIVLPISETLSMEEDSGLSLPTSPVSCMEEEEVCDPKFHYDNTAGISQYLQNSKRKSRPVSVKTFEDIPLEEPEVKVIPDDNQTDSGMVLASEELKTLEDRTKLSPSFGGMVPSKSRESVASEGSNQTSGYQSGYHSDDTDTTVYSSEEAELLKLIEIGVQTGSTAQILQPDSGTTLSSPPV
Experimental: as §4, §5, §6, §7

[8] = biological target: PDGFR-α (Homo sapiens, UniProt P16234); experiment: Kinase inhibition assay (ELISA); assay type: biochemical; conditions: 1 µM ATP
Sequence of PDGFR-α (P16234 24-1089, species assumed): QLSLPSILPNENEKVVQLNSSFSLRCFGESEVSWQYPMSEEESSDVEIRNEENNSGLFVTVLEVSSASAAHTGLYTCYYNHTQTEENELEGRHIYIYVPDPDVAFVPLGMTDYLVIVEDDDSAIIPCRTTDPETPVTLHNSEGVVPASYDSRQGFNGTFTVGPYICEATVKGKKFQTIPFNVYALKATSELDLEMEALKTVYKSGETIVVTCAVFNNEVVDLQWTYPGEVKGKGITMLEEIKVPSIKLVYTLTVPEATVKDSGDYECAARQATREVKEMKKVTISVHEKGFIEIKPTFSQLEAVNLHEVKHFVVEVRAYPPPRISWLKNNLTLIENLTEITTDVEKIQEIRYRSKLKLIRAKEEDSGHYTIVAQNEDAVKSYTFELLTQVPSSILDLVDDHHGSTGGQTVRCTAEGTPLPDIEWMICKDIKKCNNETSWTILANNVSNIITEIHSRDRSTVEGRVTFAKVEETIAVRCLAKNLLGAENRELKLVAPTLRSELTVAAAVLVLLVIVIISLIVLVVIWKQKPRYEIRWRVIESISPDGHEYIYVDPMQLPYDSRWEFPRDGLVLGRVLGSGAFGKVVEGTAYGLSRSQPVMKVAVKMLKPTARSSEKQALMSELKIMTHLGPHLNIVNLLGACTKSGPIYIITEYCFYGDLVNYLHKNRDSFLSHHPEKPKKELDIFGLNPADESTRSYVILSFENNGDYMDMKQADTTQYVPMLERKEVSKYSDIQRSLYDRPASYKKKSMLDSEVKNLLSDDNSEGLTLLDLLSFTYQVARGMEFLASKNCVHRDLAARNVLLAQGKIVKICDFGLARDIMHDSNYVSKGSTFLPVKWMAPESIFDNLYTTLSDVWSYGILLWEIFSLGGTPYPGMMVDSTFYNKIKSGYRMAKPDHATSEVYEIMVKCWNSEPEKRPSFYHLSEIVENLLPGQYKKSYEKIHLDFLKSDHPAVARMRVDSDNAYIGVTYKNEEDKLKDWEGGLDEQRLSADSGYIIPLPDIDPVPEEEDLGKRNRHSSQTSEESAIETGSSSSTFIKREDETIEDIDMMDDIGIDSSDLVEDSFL
Experimental: as §4, §5, §6, §7

Molecule | Kp ([1]; male, brain/plasma) | IC50 ([2]; Homo sapiens, A2780, 72 h) | IC50 ([3]; Homo sapiens, U-251, 72 h) | IC50 ([4]; Homo sapiens, A 172, 72 h) | IC50 ([5]; Homo sapiens, A-375, 72 h) | IC50 [6] | IC50 [7] | IC50 [8] | Kp ([1]; brain) | IC50 ([2]; 72 h) | IC50 ([3]; 72 h) | IC50 ([4]; 72 h) | IC50 ([5]; 72 h)
OCCN1CCC(Cc2ccnc(Nc3ncc(-c4ccc(F)cc4)s3)c2)CC1 [Example 003, 2-(4-{2-[5-(4-Fluoro-phenyl)-thiazol-2-ylamino]-pyridin-4-ylmethyl}-piperidin-1-yl)-ethanol] | 3.66 | > 1 µM | > 10 µM | ≤ 1 µM | > 1 µM | > 10 nM | > 10 nM | < 10 nM |  |  |  |  | 
Fc1ccc(-c2cnc(Nc3cc(CC4CNCCOC4)ccn3)s2)cc1 (stereo not drawn) [Example 009, [5-(4-Fluoro-phenyl)-thiazol-2-yl]-(4-[1,4]oxazepan-6-ylmethyl-pyridin-2-yl)-amine] | 10.3 | > 1 µM | > 10 µM | > 10 µM | > 1 µM | < 10 nM | > 10 nM | < 10 nM |  |  |  |  | 
OCCN1CCOCC(Cc2ccnc(Nc3ncc(-c4ccc(F)cc4)s3)c2)C1 (stereo not drawn) [Example 011, 2-(6-{2-[5-(4-Fluoro-phenyl)-thiazol-2-ylamino]-pyridin-4-ylmethyl}-[1,4]oxazepan-4-yl)-ethanol] | 12.7 | > 1 µM | > 10 µM | > 1 µM | > 1 µM | > 10 nM | > 10 nM | < 10 nM |  |  |  |  | 
Fc1ccc(-c2cnc(Nc3cccc(CC4CNCCOC4)n3)s2)cc1 (stereo not drawn) [Example 013, [5-(4-Fluoro-phenyl)-thiazol-2-yl]-(6-[1,4]oxazepan-6-ylmethyl-pyridin-2-yl)-amine] | 0.59 | < 1 µM | > 1 µM | > 1 µM | ≤ 1 µM | > 10 nM | > 1000 nM | > 100 nM |  |  |  |  | 
Fc1ccc(-c2cnc(Nc3cc(CC4CCCC5CNCC54)ccn3)s2)cc1 (stereo not drawn) [Example 017, [5-(4-Fluoro-phenyl)-thiazol-2-yl]-[4-(octahydro-isoindol-4-ylmethyl)-pyridin-2-yl]-amine] | 0.28 | < 1 µM |  | > 1 µM |  | < 10 nM | > 10 nM | < 10 nM |  |  |  |  | 
Fc1ccc(-c2cnc(Nc3cc(CC4CNCCNC4)ccn3)s2)cc1 [Example 019, (4-[1,4]Diazepan-6-ylmethyl-pyridin-2-yl)-[5-(4-fluoro-phenyl)-thiazol-2-yl]-amine] | 0.96 | > 1 µM | > 10 µM | > 10 µM | > 1 µM | < 10 nM | > 10 nM | < 10 nM |  |  |  |  | 
COC(=O)C1CC(Cc2ccnc(Nc3ncc(-c4ccccc4)s3)c2)CC1N (stereo not drawn) [Example 023, 2-Amino-4-[2-(5-phenyl-thiazol-2-ylamino)-pyridin-4-ylmethyl]-cyclopentanecar-boxylic acid methyl ester] |  | > 1 µM |  | > 1 µM |  | < 10 nM | > 10 nM | < 10 nM | 0.78 |  |  |  | 
Cc1nc(Nc2ncc(-c3ccccc3)s2)cc(C2CCN(CCO)CC2)n1 [Example 032, 2-{4-[2-Methyl-6-(5-phenyl-thiazol-2-ylamino)-pyrimidin-4-yl]-piperidin-1-yl}-ethanol] | 0.81 | ≤ 1 µM | > 10 µM | > 1 µM |  | > 10 nM | > 10 nM | < 10 nM |  |  |  |  | 
OCC(O)CN1CCC(c2ccnc(Nc3ncc(-c4ccc(F)cc4)s3)c2)CC1 (stereo not drawn) [Example 034, 3-{2'-[5-(4-Fluoro-phenyl)-thiazol-2-ylamino]-3,4,5,6-tetrahydro-2H-[4,4']bipyridinyl-1-yl}-propane-1,2-diol] | 1.79 | > 10 µM |  | > 1 µM |  | < 10 nM | > 10 nM | < 10 nM |  |  |  |  | 
OCCN1CCC(c2ccnc(Nc3ncc(-c4ccc(F)cc4)s3)c2)CC1 [Example 035] |  | > 1 µM | > 1 µM | > 1 µM | > 1 µM | < 10 nM | < 10 nM | < 10 nM | 18.5 |  |  |  | 
OCCN1CCC(c2ccnc(Nc3ncc(-c4cccc(F)c4)s3)c2)CC1 [Example 037, 2-{2'-[5-(3-Fluoro-phenyl)-thiazol-2-ylamino]-3,4,5,6-tetrahydro-2H-[4,4']bipyridinyl-1-yl}-ethanol] |  | > 1 µM | > 1 µM | > 10 µM | > 10 µM | < 10 nM | > 10 nM | < 10 nM |  |  |  |  | 
OCCN1CCC(c2ccnc(Nc3ncc(-c4ccc(F)c(F)c4)s3)c2)CC1 [Example 038, 2-{2'-[5-(3,4-Difluoro-phenyl)-thiazol-2-ylamino]-3,4,5,6-tetrahydro-2H-[4,4']bipyridinyl-1-yl}-ethanol] |  | > 10 µM | > 1 µM | ≤ 1 µM | > 1 µM | > 10 nM | > 10 nM | < 10 nM |  |  |  |  | 
OCCN1CCC(c2ccnc(Nc3ncc(-c4cc(F)cc(F)c4)s3)c2)CC1 [Example 039, 2-{2'-[5-(3,5-Difluoro-phenyl)-thiazol-2-ylamino]-3,4,5,6-tetrahydro-2H-[4,4']bipyridinyl-1-yl}-ethanol] |  | > 10 µM | > 10 µM | > 1 µM | > 1 µM | > 10 nM | > 10 nM | < 10 nM |  |  |  |  | 
OCCN1CCC(c2ccnc(Nc3ncc(CC(F)(F)F)s3)c2)CC1 [Example 040, 2-{2'-[5-(2,2,2-Trifluoro-ethyl)-thiazol-2-ylamino]-3,4,5,6-tetrahydro-2H-[4,4']bipyridinyl-1-yl}-ethanol] | 1.38 | > 10 µM | > 10 µM | ≤ 1 µM | > 1 µM | > 100 nM | > 100 nM | > 100 nM |  |  |  |  | 
O=C(Nc1ccccc1Cl)c1cnc(Nc2cc(C3CCN(CCO)CC3)ccn2)s1 [Example 044, 2-[1'-{2-Hydroxy-ethyl)-1',2',3',4',5',6' -hexahydro-[4,4']bipyridinyl-2-ylamino]-thiazole-5-carboxylic acid (2-chlorophenyl)-amide] | 0.19 |  |  |  | > 1 µM | > 10 nM | > 100 nM | < 10 nM |  |  |  |  | 
[5-(4-Fluoro-phenyl)-thiazol-2-yl]-[6-(octahydro-isoindol-4-ylmethyl)-pyridin-2-yl]-amine [Example 021] |  |  |  |  |  | > 10 nM | > 100 nM | > 10 nM |  | > 1 µM | > 1 µM | > 1 µM | > 1 µM
